Data set [1] is described as follows: Metabolic stability in human liver microsomes assessed as parent compound remaining measured at 60 min in presence of NADPH by LC-MS/MS analysis. The class given is ADME, Microsome. The note with it: read-out: Stability.
Data set [2] is described as follows: Stability of the compound in human plasma assessed as remaining compound measure after 10 mins by LC-MS/MS analysis. The class given is ADME, cell-free.
Data set [3] is described as follows: Stability of the compound in human plasma assessed as remaining compound measure after 30 mins by LC-MS/MS analysis. The class given is ADME, cell-free. The settings on record: read-out: Stability.
The nature of data set [4]: Stability of the compound in human plasma assessed as remaining compound measure after 60 mins by LC-MS/MS analysis. The note with it: read-out: Stability. Type of data set: ADME, cell-free.
A short description of data set [5]: Stability of the compound in human plasma assessed as remaining compound measure after 120 mins by LC-MS/MS analysis. Type of data set: ADME, cell-free. The settings on record: read-out: Stability.
A short description of data set [6]: Stability of the compound in human plasma assessed as half life by LC-MS/MS analysis. Type of data set: ADME, cell-free.
Data set [7] in a line: Metabolic stability in human liver microsomes assessed as half life in presence of NADPH by LC-MS/MS analysis. Type of data set: ADME, Microsome. In general terms: Microsomes from liver hold many membrane-bound enzymes, among them those of drug oxidation.
Data set [8] can be described thus: Metabolic stability in human microsomes assessed as intrinsic clearance in presence of NADPH by LC-MS/MS analysis. Type of data set: ADME, Microsome.
A short description of data set [9]: Metabolic stability in human liver assessed as intrinsic clearance in presence of NADPH by LC-MS/MS analysis. Type of data set: ADME, tissue-based. The settings on record: read-out: CLH.
Data set [10] can be described thus: Metabolic stability in human liver microsomes assessed as parent compound remaining measured at 60 min in absence of NADPH by LC-MS/MS analysis. Type of data set: ADME, Microsome. The note with it: read-out: Stability.
Data set [11] in a line: Half life in Sprague-Dawley rat at 1 mg/kg, iv by LC-MS/MS analysis. Type of data set: ADME, organism-based. The settings on record: in vivo.
A short description of data set [12]: Tmax in Sprague-Dawley rat at 3 mg/kg, po by LC-MS/MS analysis. Type of data set: ADME, organism-based. The note with it: in vivo.
Data set [13] in a line: Cmax in Sprague-Dawley rat at 3 mg/kg, po by LC-MS/MS analysis. Further details: dose 3 mg/kg, route po. Type of data set: ADME, organism-based. The settings on record: in vivo.
Data set [14] is described as follows: AUClast in Sprague-Dawley rat at 3 mg/kg, po by LC-MS/MS analysis. The class given is ADME, organism-based. The note with it: in vivo. The arrangement: time 0 - last, dose 3 mg/kg, route po.
Data set [15] is described as follows: AUClast in Sprague-Dawley rat at 1 mg/kg, iv by LC-MS/MS analysis. The arrangement: time 0 - last, dose 1 mg/kg, route iv. Type of data set: ADME, organism-based. The settings on record: in vivo.
Data set [16] can be described thus: AUCinfinity in Sprague-Dawley rat at 1 mg/kg, iv by LC-MS/MS analysis. Further details: time infinity, dose 1 mg/kg, route iv. The class given is ADME, organism-based. The note with it: in vivo.
The nature of data set [17]: MRT in Sprague-Dawley rat at 3 mg/kg, po by LC-MS/MS analysis. Type of data set: ADME, organism-based. The note with it: in vivo.
Data set [18] in a line: MRT in Sprague-Dawley rat at 1 mg/kg, iv by LC-MS/MS analysis. The settings on record: in vivo. The class given is ADME, organism-based.
Data set [19] is described as follows: Volume of distribution at steady state in Sprague-Dawley rat at 1 mg/kg, iv by LC-MS/MS analysis. Type of data set: ADME, organism-based. The note with it: in vivo, read-out: Vdss.
The nature of data set [20]: Oral bioavailability in Sprague-Dawley rat at 3 mg/kg by LC-MS/MS analysis. The class given is ADME, organism-based. The settings on record: in vivo.

Consider 1 compound from ChEMBL document CHEMBL5143560, “Rational drug design to explore the structure-activity relationship (SAR) of TRK inhibitors with 2,4-diaminopyrimidine scaffold” (Eur J Med Chem, 2022).

In the case of `O=C(N[C@@H]1CCCNC1)c1cccc(Nc2ncc(Cl)c(NCc3cccc(F)c3)n2)c1`, the remaining at 1 h in data set [1] was determined as 90.2%; in [4], 90.5%; in [10] it was 96%. Further, the Stability in [2] worked out at 84%. In [3], the remaining at 0.5 h stood at 90.1%. Also, the remaining at 2 h in data set [5] is 103%. Further, the half-life in [6] was over 4.82 h; in data set [7], over 2.42 h; in [11], 3.4 h. Moreover, the CLint scaled was under 0.576 L/h/kg in data set [8] and under 0.516 L/h/kg in data set [9]. In addition, the time to peak (Tmax) in [12] turned out to be 4 h. Moreover, in data set [13], the Cmax came out at 0.0336 µg/mL. Besides, the values for the area under the curve AUC(0-t) in [14] and in data set [15] were 0.188 µg·h/mL and 0.325 µg·h/mL, respectively. In addition, the AUC in [16] turned out to be 0.386 µg·h/mL. The results for the mean residence time MRT in [17] and in data set [18] were 3.49 h and 3.96 h, respectively. Also, the Vd in data set [19] was found to be 31 L/kg. In data set [20], this compound returned a bioavailability of 17.4%.

One may read the half-life as the time in which the quantity being followed falls by half. The term Tmax denotes the time at which the peak concentration occurs. One may read the Cmax as the highest concentration seen after dosing. As a reminder, the AUC(0-t) is the area under the concentration-time curve up to a stated or last time point. Low values mean less exposure, high ones more exposure. In general, AUC refers to concentration integrated over time. One may read the MRT as a mean duration of stay, worked out from the concentration-time curve. By bioavailability is commonly meant the share of a dose that reaches the circulation, judged against a reference dose that is usually intravenous.
